What all share (test): NCI tumour cell line growth inhibition, 48 h
For test [1], the system named is HOP-62 NSCLC.
The subject of test [2] is SF-539 CNS.
Test [3] concerns NCI-H522 lung.
In test [4] the test system is NCI-H226 lung.
Test [5] deals with UO-31 renal.
In test [6] the test system is SN12C renal.
Test [7] deals with RXF 393 renal.
The test system of test [8] is KM12 colon.
The subject of test [9] is M19-MEL melanoma.
Test [10] concerns ACHN renal.

Structures are written as SMILES.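 Tested at 5 concentrations; 48 h exposure; 96-well plates; endpoints linearly interpolated, else capped at highest concentration. The concentration for 50% growth inhibition is given as GI50. TGI: total growth inhibition.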 Where only a bound is given, the exact number is not on record here.

As for `O=C(O)C(Cc1ccccc1)N=Cc1nc(-c2ccccc2)oc1O` (stereo not drawn), the TGI in test [1], in test [2], in [3], in test [4], in test [5] and in [6] was above 100 µM throughout. Also, the TGI in test [7], in [8], in [9] and in test [10] was above 100 µM each time.

As to `CC1CCCc2c1n[nH]c2CC1CC(=O)NC(=O)C1` (stereo not drawn), the TGI in test [1], in test [2], in test [3], in test [4], in [5] and in test [6] was above 100 µM throughout. Besides, the TGI in test [7], in [8], in [9] and in test [10] was above 100 µM each time.

Consider `O=C(NC1CCCCC1)NC12CC3CC(CC(F)(C3)C1)C2`, for which the TGI in test [1], in test [2], in test [3], in test [5], in test [7] and in [8] was above 100 µM each time. The TGI in [9] and in test [10] was above 100 µM throughout.

Regarding `CCCCCCCCCCNC(=S)OC`, the TGI in [1] is above 100 µM; in [2], above 100 µM; in test [3], 58.7 µM; in test [5] it was 85.8 µM; in [6] it was above 100 µM; in [7], above 100 µM. Further, the TGI in [9] is 69.4 µM; in test [10], above 100 µM.

Take `C=CCC1(CN(C)C)CC/C(=C\c2cc(OC)c(OC)c(OC)c2)C1=O` (stereo not drawn): the TGI in test [1] was above 100 µM; in test [2] it was 35 µM; in [3], 29.4 µM; in test [4], above 100 µM; in [5] it was 77 µM; in [6] it was 54.8 µM. Also, the TGI in test [7] was 37.3 µM; in [8], 32.8 µM; in test [9] it was above 100 µM; in [10] it was 70.8 µM.

Take `Oc1ccc(O)c(-n2cccn2)c1`: the TGI was above 100 µM in test [1]; above 100 µM in test [2]; 34.7 µM in test [3]; above 100 µM in test [5]; above 100 µM in test [6]; above 100 µM in test [7]. Also, the values for the TGI in test [8], in [9] and in test [10] were above 100 µM, 76.1 µM and above 100 µM, respectively.

In the case of `CCCC(=O)Oc1ccc(/C=N/NC(N)=S)nc1`, the TGI in [1], in test [2], in test [3], in test [4], in test [5] and in test [6] was above 100 µM throughout. Further, the TGI in test [7], in test [8], in test [9] and in test [10] was above 100 µM in each case.

With `NCCCNCc1c2ccccc2c(CNCCCN)c2ccccc12`, the TGI in test [1] was 62.6 µM; in test [2], 28.9 µM; in [3] it was 21 µM; in test [5] it was above 100 µM; in [6], 18.5 µM; in test [7], 35.7 µM. The TGI was 43.9 µM in test [8], 35.4 µM in [9] and above 100 µM in test [10].

Regarding `Cn1nc(-c2ccccc2)c2c(/C=C/c3ccc(F)cc3)onc2c1=O`, the TGI in [1] was above 100 µM; in [2] it was above 100 µM; in test [3] it was 51.1 µM; in [5] it was above 100 µM; in [6], above 100 µM; in test [7], 70.7 µM. Moreover, the TGI in test [9] and in [10] was above 100 µM each time.

As for `CCCC[C@H](CCc1ccccc1)N(C(=O)OC)N1CCC[C@H]1COC`, the TGI in [1] worked out at 40.4 µM; in test [2] it was 33 µM; in test [3] it was 28.1 µM; in [4] it was 36.2 µM; in [5] it was 35.4 µM; in test [6], 32.7 µM. In addition, the TGI turned out to be 32.9 µM in test [7], 35.9 µM in test [8], 40.4 µM in test [9] and 30.4 µM in test [10].

Regarding `C[N+]1(CCNP(=S)(NCC[N+]2(C)Cc3c(ccc4c3OCO4)C3C2c2cc4c(cc2C[C@@H]3O)OCO4)NCC[N+]2(C)Cc3c(ccc4c3OCO4)C3C2c2cc4c(cc2C[C@@H]3O)OCO4)Cc2c(ccc3c2OCO3)C2C1c1cc3c(cc1C[C@H]2O)OCO3` (stereo partly drawn), the GI50 was 7.52 µM in test [1]; 1.99 µM in [2]; 2.55 µM in [3]; 4.3 µM in test [5]; 3.84 µM in test [6]; 1.76 µM in [7]. The results for the GI50 in [8], in [9] and in test [10] were 1.78 µM, 2.04 µM and 4.16 µM, respectively. Also, the TGI in [4] turned out to be 79.6 µM.

`Nc1ccc(C(=O)CC2(O)C(=O)Nc3ccccc32)cc1` (stereo not drawn): the TGI in [2], in [3], in [4], in test [5], in [6] and in [7] was above 100 µM each time. Besides, the TGI in [9] and in [10] was above 100 µM in each case.

In the case of `Cc1ccc([N+](=O)[O-])cc1NC(=O)C(=O)Cc1nc2ccc(C(=O)c3ccccc3)cc2[nH]c1=O`, the TGI in [1], in [2], in test [3], in test [4], in test [5] and in test [6] was above 100 µM throughout. Also, the TGI in test [7], in test [8], in [9] and in [10] was above 100 µM in each case.

Take `Cc1ccccc1SC(/C=C/NNC1=NC(c2ccccc2)C(c2ccccc2)=NN1)c1ccccc1` (stereo not drawn): the TGI in test [1] was 49.4 µM; in test [2], 27.6 µM; in [3], above 100 µM; in test [4], 52 µM; in test [5] it was 48.6 µM; in [6] it was above 100 µM. The TGI is 31.2 µM in [7], above 100 µM in test [8], above 100 µM in test [9] and 42.8 µM in test [10].

On to `COc1ccc(C2=NN(C(C)=O)c3nc4ccccc4nc3O2)cc1`, for which the TGI in test [1] was 64 µM; in test [2], 43.1 µM; in test [3], 63.8 µM; in test [5] it was 90.4 µM; in test [6] it was above 100 µM; in test [8], above 100 µM. Further, the TGI in test [9] and in [10] was above 100 µM each time.

These data come from PubChem BioAssay (NCI).
